Patent publication US20240041982A1, “EXTENDED RELEASE HYDROGEL CONJUGATES OF C-NATRIURETIC PEPTIDES” (ProLynx LLC, priority 2020, published 2024)
Bridge positions count the residues as written; N and C are the ends. Ends that are not written are not given here.

Legend:
[1] = test system: wild-type male mice (FVB/nJ); assay: Pharmacodynamics in juvenile mice: growth and bone length by X-ray; assay type: in vivo; details: QD 70 nmol/kg; after 5 weeks of treatment
Experimental: Three-week old wild-type male mice (FVB/nJ; Charles River Laboratory, Inc) were administered subcutaneous injections of the conjugates of Example 3 at either a weight-adjusted (nmol/kg) or constant (nmol/animal independent of the initial weight) dose over 35 days. For experiments using constant doses/animal, the conjugate of Example 3 wherein R^1=isopropylsulfonyl (conjugate 4A) was administered at either 20 or 50 nmol/mouse; the conjugate of Example 3 wherein R^1=(N,N-dimethylamino)sulfonyl (conjugate 4B) was administered at either 85 or 600 nmol/mouse. For experiments using weight-adjusted doses/animal, conjugate 4A was administered at either 1.5 or 2.2 umol/kg; conjugate 4B was administered at 6.1 umol/kg. Doses were calculated based on the body weight just prior to dosing and performed at approximately the same time of day. Comparator animals were dosed with either [Gln^6,14]CNP-38 or vosoritide at 70 nmol/kg formulated in 30 mM acetic acid pH 4.0 containing 10% (w/v) sucrose and 1% (v/v) benzyl alcohol (Wendt; Breinholt), and control animals were dosed with the formulation buffer (isotonic acetate (10 mM Na Acetate, 143 mM NaCl), pH 5.0, 0.05% Tween 20 buffer containing 1.2% sodium hyaluronate. Daily weight-adjusted doses were calculated based on the body weight just prior to dosing and performed at approximately the same time each day.
Blood collections were made via tail vein with the addition of protease inhibitors (Halt protease inhibitor cocktail, ThermoScientific) and processed with K2EDTA to provide ˜15-20 μL plasma, for analysis of free [Gln^6,14]CNP-38. For the mice treated with the conjugate 4A, blood collection occurred at 0, 24, 168, 192, 336, 360, 504, 528, 672 and 840 hr. For the mice treated with conjugate 4B, blood collection occurred at 0, 24, 168, 336, 504, 672 and 840 hr.
Body weight, tail length and naso-anal length were collected at study initiation and were measured weekly during the in-life treatment period. […] The naso-anal (distance from the tip of the nose to the anus) and the tail length (distance from the anus to the tip of the tail) were measured and recorded. The same ruler was used for all measurements, and all measurements were conducted and recorded in centimeters. Total length (TL) is derived from the addition of the measured tail length and naso-anal length.
On day 35, the mice were anesthetized and in addition to the nasal-anal and tail length measurements, bone length measurements were made by digital X-ray (spine, right femur, right tibia, humerus and ulna). Following deep anesthesia with isoflurane, the mice were placed in the prone position and the length of the spine (lateral view, distance from the most cranial end of the C1 vertebra to the most caudal end of the S4 vertebra and accounting for curvature manually), the right femur (distance from the most proximal femoral head ossification center to the most distal ossification center in dorso-ventral view), the right tibia (distance from the most proximal ossification center to the most distal ossification center in dorso-ventral view), the right humerus (distance from the most proximal ossification center to the most distal ossification center in dorso-ventral view), and the right ulna (distance from the most proximal ossification center to the most distal ossification center in dorso-ventral view) of each mouse were measured by x-ray using a Spectral Imaging Instruments AMI HTX and the associated Aura software.

NPR-B = biological target: T1, NPR-B (Homo sapiens, UniProt P20594); details: physiological concentrations (picomolar); cited from earlier work
T1 sequence (P20594 23-1047): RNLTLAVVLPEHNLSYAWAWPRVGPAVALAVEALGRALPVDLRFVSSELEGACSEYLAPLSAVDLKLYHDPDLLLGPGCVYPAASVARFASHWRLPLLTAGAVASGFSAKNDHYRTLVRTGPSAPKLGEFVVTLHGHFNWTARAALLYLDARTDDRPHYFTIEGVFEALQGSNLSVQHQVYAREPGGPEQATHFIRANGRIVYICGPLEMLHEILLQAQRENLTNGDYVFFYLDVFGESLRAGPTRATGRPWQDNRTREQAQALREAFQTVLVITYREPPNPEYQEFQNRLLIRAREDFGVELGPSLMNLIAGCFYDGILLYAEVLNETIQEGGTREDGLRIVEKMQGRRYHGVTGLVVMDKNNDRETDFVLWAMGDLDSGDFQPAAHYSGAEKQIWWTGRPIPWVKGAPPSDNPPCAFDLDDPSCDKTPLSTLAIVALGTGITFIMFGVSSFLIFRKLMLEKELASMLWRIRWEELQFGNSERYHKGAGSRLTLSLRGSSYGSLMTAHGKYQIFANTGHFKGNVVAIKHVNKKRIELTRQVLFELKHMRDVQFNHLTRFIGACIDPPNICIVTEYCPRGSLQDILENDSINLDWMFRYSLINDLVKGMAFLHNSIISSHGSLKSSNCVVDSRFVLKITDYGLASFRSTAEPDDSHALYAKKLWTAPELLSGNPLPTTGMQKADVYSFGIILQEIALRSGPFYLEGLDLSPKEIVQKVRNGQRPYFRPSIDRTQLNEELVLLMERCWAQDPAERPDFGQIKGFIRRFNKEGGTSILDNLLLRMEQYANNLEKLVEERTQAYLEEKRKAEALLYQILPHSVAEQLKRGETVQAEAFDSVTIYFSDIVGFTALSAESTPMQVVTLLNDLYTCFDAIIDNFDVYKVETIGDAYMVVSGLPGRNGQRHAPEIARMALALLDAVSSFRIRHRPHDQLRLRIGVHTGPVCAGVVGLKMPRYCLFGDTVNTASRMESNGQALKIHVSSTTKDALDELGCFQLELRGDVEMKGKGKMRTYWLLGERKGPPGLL

[2] = in vivo; cited from earlier work
[3] = in vivo; cited from earlier work; remark: listed apart in the source

Q: Which results are given for “(Gln^6,14)CNP38 (LQEHPQARKYKGAQKKGLSKGCFGLKLDRIGSMSGLGC; disulfide 22-38) [[Gln6, 14] CNP-38]”?
A: Femur length % change from vehicle [1]: (13.6%); Humerus length % change from vehicle [1]: (0.8%); Spine length % change from vehicle [1]: (10.1%); Tibia length % change from vehicle [1]: (8.7%); Ulna length % change from vehicle [1]: (5.4%)

Q: Which results are given for CNP22?
A: affinity for NPR-B relative to ANP and BNP (NPR-B): 50-500 times; plasma half-life [2]: ~3 min

Q: With “vosoritide (PGQEHPNARKYKGANKKGLSKGCFGLKLDRIGSMSGLGC; disulfide 23-39)” as the substance, how does the known side-effects [3] read?
A: Its known side-effects is “increased heart rate and a drop in arterial blood pressure”.

Q: And the half-life [2]?
A: Its half-life is 20 min.
